“And” between values parts separate entries of the source, which are not always exact repeats. Identical values can stand only once. Inconclusive results and toxic doses are left out. The calls were made as follows: active = survival T/C of 150% or more; inactive = T/C below 125% in these data.
Tested on: CD2F1 mice, L1210 leukemia ip, survival T/C
Assay: NCI In Vivo Anticancer Drug Screen. Data for tumor model L1210 Leukemia (intraperitoneal) in CD2F1 (CDF1) mice
Settings: higher = longer survival
In short: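 Transplantable tumor in mice; compound-treated vs vehicle-treated groups. Read-out = treated/control ratio of the measured endpoint.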

[1] = endpoint: mean survival time, dose: 100.0 mg/kg/injection, schedule: Q04DX003 (ip), vehicle: saline with Tween-80
[2] = endpoint: mean survival time, dose: 200.0 mg/kg/injection, schedule: Q04DX003 (ip), vehicle: saline with Tween-80
[3] = endpoint: mean survival time, dose: 400.0 mg/kg/injection, schedule: Q04DX003 (ip), vehicle: saline with Tween-80
[4] = endpoint: mean survival time, dose: 100.0 mg/kg/injection, schedule: Q01DX001 (ip), vehicle: saline
[5] = endpoint: mean survival time, dose: 100.0 mg/kg/injection, schedule: Q01DX009 (ip), vehicle: saline with Tween-80
[6] = endpoint: mean survival time, dose: 200.0 mg/kg/injection, schedule: Q01DX009 (ip), vehicle: saline with Tween-80

Measured: T/C

CCOC(=O)NC(=S)Nc1ncn[nH]1
inactive: endpoint: mean survival time, dose: 25.0 mg/kg/injection, schedule: Q01DX001 (ip), vehicle: carboxymethylcellulose (CMC) 102 % of control | endpoint: mean survival time, dose: 50.0 mg/kg/injection, schedule: Q01DX001 (ip), vehicle: carboxymethylcellulose (CMC) 97 % of control | endpoint: mean survival time, dose: 100.0 mg/kg/injection, schedule: Q01DX001 (ip), vehicle: carboxymethylcellulose (CMC) 97 % of control | endpoint: mean survival time, dose: 200.0 mg/kg/injection, schedule: Q01DX001 (ip), vehicle: carboxymethylcellulose (CMC) 93 % of control

O=C(O)CCC(=O)NO
inactive: endpoint: mean survival time, dose: 100.0 mg/kg/injection, schedule: Q04DX003 (ip), vehicle: saline 109 % of control | endpoint: mean survival time, dose: 200.0 mg/kg/injection, schedule: Q04DX003 (ip), vehicle: saline 109 % of control | endpoint: mean survival time, dose: 400.0 mg/kg/injection, schedule: Q04DX003 (ip), vehicle: saline 109 % of control

N=C(N)c1ccc(NC(=O)c2ccc(C(=O)Nc3ccc(C(=N)N)cc3)c(N)c2)cc1
inactive: endpoint: median survival time, dose: 12.5 mg/kg/injection, schedule: Q01DX009 (ip), vehicle: saline with Tween-80 101 % of control and 110 % of control | endpoint: median survival time, dose: 25.0 mg/kg/injection, schedule: Q01DX009 (ip), vehicle: saline with Tween-80 102 % of control and 112 % of control | endpoint: median survival time, dose: 50.0 mg/kg/injection, schedule: Q01DX009 (ip), vehicle: saline with Tween-80 119 % of control and 103 % of control | endpoint: median survival time, dose: 100.0 mg/kg/injection, schedule: Q01DX009 (ip), vehicle: saline with Tween-80 121 % of control and 96 % of control and 112 % of control | endpoint: median survival time, dose: 200.0 mg/kg/injection, schedule: Q01DX009 (ip), vehicle: saline with Tween-80 107 % of control

O=C(O)c1cscc1-c1ccccc1
inactive: [1] 104 % of control | [2] 104 % of control | [3] 102 % of control

O=C(Nc1ccc(Cl)cc1)Oc1ccc2ccccc2c1
inactive: [4] 96 % of control | endpoint: mean survival time, dose: 200.0 mg/kg/injection, schedule: Q01DX001 (ip), vehicle: saline 94 % of control | endpoint: mean survival time, dose: 400.0 mg/kg/injection, schedule: Q01DX001 (ip), vehicle: saline 111 % of control

O=C(Nc1ccccc1[N+](=O)[O-])c1ccccc1
inactive: endpoint: mean survival time, dose: 100.0 mg/kg/injection, schedule: Q01DX001 (ip), vehicle: saline with Tween-80 97 % of control | [1] 102 % of control | endpoint: mean survival time, dose: 200.0 mg/kg/injection, schedule: Q01DX001 (ip), vehicle: saline with Tween-80 100 % of control | [2] 105 % of control | endpoint: mean survival time, dose: 400.0 mg/kg/injection, schedule: Q01DX001 (ip), vehicle: saline with Tween-80 95 % of control | [3] 97 % of control

CC1(C)N=C(N)N=C(N)N1c1cccc(CCC(=O)Nc2ccc(S(=O)(=O)F)cc2)c1
inactive: endpoint: mean survival time, dose: 50.0 mg/kg/injection, schedule: Q01DX009 (ip), vehicle: saline 100 % of control | endpoint: mean survival time, dose: 100.0 mg/kg/injection, schedule: Q01DX009 (ip), vehicle: saline 102 % of control | endpoint: mean survival time, dose: 200.0 mg/kg/injection, schedule: Q01DX009 (ip), vehicle: saline 105 % of control | endpoint: mean survival time, dose: 300.0 mg/kg/injection, schedule: Q01DX009 (ip), vehicle: saline 105 % of control | endpoint: mean survival time, dose: 400.0 mg/kg/injection, schedule: Q01DX009 (ip), vehicle: saline 108 % of control

OC(c1ccccc1)(c1ccccc1)c1nc2ccccc2o1
inactive: [5] 107 % of control | [1] 96 % of control | [6] 100 % of control | [2] 91 % of control | [3] 95 % of control

C[n+]1cc(Br)c2ccccc2c1
inactive: endpoint: mean survival time, dose: 75.0 mg/kg/injection, schedule: Q01DX001 (ip), vehicle: saline 100 % of control | endpoint: mean survival time, dose: 150.0 mg/kg/injection, schedule: Q01DX001 (ip), vehicle: saline 103 % of control

COc1ccc(C=NC2CC(C)CCC2C)c(OC)c1 (centres undefined)
inactive: [5] 86 % of control | [1] 91 % of control | [6] 89 % of control | [2] 95 % of control | endpoint: mean survival time, dose: 400.0 mg/kg/injection, schedule: Q01DX009 (ip), vehicle: saline with Tween-80 93 % of control | [3] 95 % of control

CCOC(=O)C1C(=O)CC(c2ccccc2)C(C#N)(c2ccccc2)C1(O)c1ccccc1 (centres undefined)
inactive: endpoint: mean survival time, dose: 100.0 mg/kg/injection, schedule: Q04DX002 (ip), vehicle: saline with Tween-80 90 % of control | endpoint: mean survival time, dose: 200.0 mg/kg/injection, schedule: Q04DX002 (ip), vehicle: saline with Tween-80 90 % of control | endpoint: mean survival time, dose: 400.0 mg/kg/injection, schedule: Q04DX002 (ip), vehicle: saline with Tween-80 90 % of control

CCCCCC(O)C1CCCCC1C (centres undefined)
inactive: [1] 105 % of control | [2] 102 % of control | [3] 90 % of control

c1ccc2c(c1)CC1Sc3ccccc3N=C21 (centres undefined)
inactive: endpoint: mean survival time, dose: 50.0 mg/kg/injection, schedule: Q01DX009 (ip), vehicle: saline with Tween-80 91 % of control | [5] 91 % of control | [6] 94 % of control

C/C([O-])=C/[S+](C)(=O)N(C)C (centres undefined)
inactive: endpoint: mean survival time, dose: 25.0 mg/kg/injection, schedule: Q01DX001 (ip), vehicle: saline 103 % of control | endpoint: mean survival time, dose: 50.0 mg/kg/injection, schedule: Q01DX001 (ip), vehicle: saline 109 % of control | [4] 96 % of control

Source: PubChem BioAssay AID256 (DTP/NCI, 2004)
